Assay results as given in ChEMBL document CHEMBL3046365, “Insecticidal Activity of Pyridalyl: Acute and Sub-Acute Symptoms in Spodoptera litura Larvae” (2004).
Calls of active or inactive are those of the source. No cut-off for these calls is given here.

Experiments:
[1] = tested on: Spodoptera litura; experiment: Insecticidal activity against fifth-instar Spodoptera litura larvae assessed as mortality compound applied topically measured after 2 days; format: functional
[2] = tested on: Spodoptera litura; experiment: Acute insecticidal activity against fifth-instar Spodoptera litura larvae assessed as decrease in vigor at 50 to 400 ng applied topically; format: functional, organism-based
[3] = tested on: Spodoptera litura; experiment: Acute insecticidal activity against fifth-instar Spodoptera litura larvae assessed as decrease in mobility at 50 to 400 ng applied topically; format: functional, organism-based
[4] = tested on: Spodoptera litura; experiment: Acute insecticidal activity against fifth-instar Spodoptera litura larvae assessed as mortality at 200 ng applied topically measured after 3 hr; format: functional
[5] = tested on: Spodoptera litura; experiment: Acute insecticidal activity against fifth-instar Spodoptera litura larvae assessed as mortality at 400 ng applied topically measured after 1 hr; format: functional, organism-based
[6] = tested on: Spodoptera litura; experiment: Insecticidal activity against fifth-instar Spodoptera litura larvae at 1.56 to 25 ng applied topically measured up to 1 day; format: functional, organism-based
[7] = tested on: Spodoptera litura; experiment: Acute insecticidal activity against fifth-instar Spodoptera litura larvae assessed as mortality at 400 ng applied topically measured after 2 hr; format: functional
[8] = tested on: Spodoptera litura; experiment: Insecticidal activity against fifth-instar Spodoptera litura larvae assessed as abnormal body shape at 1.56 to 25 ng applied topically; format: functional, organism-based
[9] = tested on: Spodoptera litura; experiment: Acute insecticidal activity against fifth-instar Spodoptera litura larvae assessed as mortality at 50 ng applied topically measured within 3 days; format: functional
[10] = tested on: Spodoptera litura; experiment: Insecticidal activity against fifth-instar Spodoptera litura larvae assessed as mortality compound applied topically measured after 3 days; format: functional
[11] = tested on: Spodoptera litura; experiment: Insecticidal activity against fifth-instar Spodoptera litura larvae assessed as mortality at 1.56 to 25 ng applied topically measured after 5 days; format: functional, organism-based
[12] = tested on: Spodoptera litura; experiment: Insecticidal activity against fifth-instar Spodoptera litura larvae assessed as mortality at 25 ng applied topically measured after 5 days; format: functional, organism-based
[13] = tested on: Spodoptera litura; experiment: Acute insecticidal activity against fifth-instar Spodoptera litura larvae assessed as mortality at 100 ng applied topically measured after 6 hr; format: functional
[14] = tested on: Spodoptera litura; experiment: Insecticidal activity against fifth-instar Spodoptera litura larvae assessed as mortality compound applied topically measured after 1 day; format: functional
[15] = tested on: Spodoptera litura; experiment: Acute insecticidal activity against fifth-instar Spodoptera litura larvae assessed as decrease in body elasticity at 50 to 400 ng applied topically; format: functional, organism-based
[16] = tested on: Spodoptera litura; experiment: Acute insecticidal activity against fifth-instar Spodoptera litura larvae assessed as flaccid paralysis at 50 to 400 ng applied topically; format: functional, organism-based
[17] = tested on: Spodoptera litura; experiment: Acute insecticidal activity against fifth-instar Spodoptera litura larvae assessed as mortality at 200 ng applied topically measured after 1 hr; format: functional, organism-based
[18] = tested on: Spodoptera litura; experiment: Insecticidal activity against fifth-instar Spodoptera litura larvae assessed as burn scar on the area where compound applied at 1.56 to 6.25 ng applied topically measured after 4 days; format: functional, organism-based
[19] = tested on: Spodoptera litura; experiment: Acute insecticidal activity against fifth-instar Spodoptera litura larvae assessed as mortality at 50 ng applied topically measured after 6 hr; format: functional, organism-based
[20] = tested on: Spodoptera litura; experiment: Insecticidal activity against fifth-instar Spodoptera litura larvae assessed as inhibition of emergence as adult at 1.56 to 25 ng applied topically; format: functional, organism-based
[21] = tested on: Spodoptera litura; experiment: Insecticidal activity against fifth-instar Spodoptera litura larvae assessed as inhibition of ecdysis at 1.56 to 25 ng applied topically measured after 5 days; format: functional, organism-based

## FC(F)(F)c1ccc(OCCCOc2c(Cl)cc(OCC=C(Cl)Cl)cc2Cl)nc1 [PYRIDALYL]
[1]
  LD50: 50.1 ng
[2]
  Activity: Active
[3]
  Activity: Active
[4]
  mortality: 100%
[5]
  Activity: Active
[6]
  Activity: inactive
[7]
  mortality: 100%
[8]
  inhibition: Active
[9]
  mortality: >50%
[10]
  LD50: 24.4 ng
[11]
  inhibition: Active
[12]
  Activity: Active
[13]
  mortality: 100%
[14]
  LD50: 57.3 ng
[15]
  Activity: Active
[16]
  Activity: Active
[17]
  Activity: Active
[18]
  Activity: Active
[19]
  Activity: inactive
[20]
  Activity: Active
[21]
  Activity: Active
